Measured values taken from the NIST ThermoML archive (doi:10.1021/je700260f).

Details: Liquid, Vibrating tube method

FC(C(F)(F)F)C(F)(F)F [1,1,1,2,3,3,3-heptafluoropropane]
Details	mass density [kg/m3]
333.14 K, 28231 kPa	1431.3
333.14 K, 28261 kPa	1431.4
333.14 K, 28291 kPa	1431.5
333.14 K, 28321 kPa	1431.5
333.14 K, 28346 kPa	1431.8
333.14 K, 28383 kPa	1431.9
333.14 K, 28426 kPa	1432.1
333.14 K, 28453 kPa	1432.3
333.14 K, 29468 kPa	1436.5
333.14 K, 29504 kPa	1436.7
333.14 K, 29539 kPa	1436.8
333.14 K, 29570 kPa	1437.1
333.14 K, 29596 kPa	1437.2
333.14 K, 29621 kPa	1437.1
333.14 K, 29660 kPa	1437.3
333.14 K, 29724 kPa	1437.5
333.14 K, 29789 kPa	1437.8
333.14 K, 29825 kPa	1437.9
333.14 K, 29848 kPa	1438.1
333.14 K, 29883 kPa	1438.3
333.14 K, 29910 kPa	1438.4
333.14 K, 29946 kPa	1438.5
333.14 K, 29982 kPa	1438.6
333.14 K, 30013 kPa	1438.8
333.14 K, 30054 kPa	1439.1
333.14 K, 30122 kPa	1439.3
333.14 K, 30215 kPa	1439.6
333.14 K, 30241 kPa	1439.8
333.14 K, 30272 kPa	1440
333.14 K, 30958 kPa	1442.6
333.14 K, 31004 kPa	1442.8
333.14 K, 31030 kPa	1443
333.14 K, 31064 kPa	1443.2
333.14 K, 31094 kPa	1443.2
333.14 K, 31125 kPa	1443.4
333.14 K, 31155 kPa	1443.4
333.14 K, 31190 kPa	1443.7
333.14 K, 31220 kPa	1443.6
333.14 K, 31247 kPa	1443.9
333.14 K, 31285 kPa	1444
333.14 K, 31317 kPa	1444
333.14 K, 31349 kPa	1444.1
333.14 K, 31380 kPa	1444.4
333.14 K, 31423 kPa	1444.5
333.14 K, 31458 kPa	1444.7
333.14 K, 31490 kPa	1444.8
333.14 K, 31523 kPa	1445
333.14 K, 31566 kPa	1445.1
333.14 K, 31598 kPa	1445.3
333.14 K, 31630 kPa	1445.3
333.14 K, 31662 kPa	1445.5
333.14 K, 31694 kPa	1445.6
333.14 K, 31730 kPa	1445.8
333.14 K, 31758 kPa	1445.8
333.14 K, 31790 kPa	1446
333.14 K, 31827 kPa	1446.1
333.14 K, 31857 kPa	1446.3
333.14 K, 31894 kPa	1446.5
333.14 K, 31930 kPa	1446.5
333.14 K, 31957 kPa	1446.6
333.14 K, 32003 kPa	1446.7
333.14 K, 32036 kPa	1446.9
333.14 K, 32069 kPa	1447
333.14 K, 32103 kPa	1447.2
333.14 K, 32135 kPa	1447.4
333.14 K, 32168 kPa	1447.4
333.14 K, 32197 kPa	1447.6
333.14 K, 32240 kPa	1447.7
333.14 K, 32275 kPa	1447.7
333.14 K, 32318 kPa	1448
333.14 K, 32349 kPa	1448.2
333.14 K, 32394 kPa	1448.3
333.14 K, 32422 kPa	1448.5
333.14 K, 32458 kPa	1448.6
333.14 K, 32486 kPa	1448.7
333.14 K, 32524 kPa	1448.8
333.14 K, 32553 kPa	1448.9
333.14 K, 32585 kPa	1449.1
333.14 K, 32614 kPa	1449.2
333.14 K, 32648 kPa	1449.3
333.14 K, 32678 kPa	1449.5
333.14 K, 32707 kPa	1449.5
333.14 K, 32736 kPa	1449.7
333.14 K, 32768 kPa	1449.9
333.14 K, 32811 kPa	1449.9
333.14 K, 32840 kPa	1450.1
333.14 K, 32883 kPa	1450.3
333.14 K, 33794 kPa	1453.9
333.14 K, 33829 kPa	1453.8
333.14 K, 33872 kPa	1453.9
333.14 K, 33907 kPa	1454.1
333.14 K, 34179 kPa	1455.3
333.14 K, 34220 kPa	1455.1
333.14 K, 34250 kPa	1455.4
333.14 K, 34294 kPa	1455.5
333.14 K, 34336 kPa	1455.9
333.14 K, 34376 kPa	1455.8
333.14 K, 34409 kPa	1456
333.15 K, 6283 kPa	1289.9
333.15 K, 6309 kPa	1290.2
333.15 K, 6346 kPa	1290.5
333.15 K, 6386 kPa	1291
